Measurements: patent US20050064412A1, “Method of evaluating degree of canceration of mammal-origin specimen” (priority 2001, published 2005)

Legend:
Type in all cases: cell-based, human
3OST2 gene [1] = assay: Methylation-specific PCR of 3OST2 gene after culture with methylation inhibitor (MCF-7); details: breast cancer cell line MCF-7 cultured in the presence of 6 μM 5Aza-dC, FIG. 2
Method: (§1) Two kinds of human-derived breast cancer cell lines (MCF-7, MDA-MB-468) and human-derived normal mammary gland epithelial cell (HMEC) were seeded at a density of 3 to 6×10^5 cells/10 cm plate, and cultured using RPMI or DMEM or an exclusively used medium. On the first day after seeding, 5-aza-2′-deoxytidine (manufactured by sigma) (hereinafter, referred to as 5Aza-dC) which is a methylation inhibitor was added to a medium to give the concentration of 0.5 to 6 μM. Twenty four hours after addition of 5Aza-Dc, the medium was exchanged with the aforementioned medium to which no 5Aza-dC was added, and culturing was continued. Then, on the third day after seeding, 5Aza-dC was added to the medium similarly. On the fourth day after seeding, cells were recovered, and a genomic DNA was extracted and recovered from the recovered cells according to the same manner as that of Example 1. Further, according to the same manner as that of Example 2, a RNA was extracted and recovered.
(§2) The extracted and recovered genomic DNA was treated with sodium bisulfite according to the same manner as that of Example 1. The resulting DNA was used as a template and PCR was performed using unmethylation-specific primers U2 and U3, or methylation-specific primers M3 and M4 shown below. […]

3OST2 gene [2] = assay: Methylation-specific PCR of 3OST2 gene after culture with methylation inhibitor (MDA-MB-468); details: breast cancer cell line MDA-MB-468 cultured in the presence of 0.5 μM 5Aza-dC, FIG. 2
Method: as §1, §2

3OST2 gene [3] = assay: RT-PCR of 3OST2 gene mRNA after culture with methylation inhibitor (MDA-MB-468); details: FIG. 3
Method: The thus obtained RNA was treated with DNaseI (Life Technologies), and this was used as a template and Superscript II (Life Technologies) was used to synthesize a cDNA according to a protocol attached to the enzyme. By performing PCR using the synthesized cDNA as a template and using 3OST2 S and 3OST2 A shown below as a primer pair, a DNA derived from a mRNA of 3OST2 gene was amplified. Thereupon, as a control by performing PCR using the aforementioned cDNA as a template and using GAPDH S and GAPDH A solution below as a primer pair, a DNA derived from a mRNA of a GAPDH gene was amplified.
A reaction solution PCR was used which was obtained by mixing 20 ng of a cDNA as a template, each 0.25 μl of two kinds of 25 pmol/μl aforementioned primer solution, 0.5 μl of 10 mM dNTP, 2.5 μl of 10× buffer (100 mM Tris-HCl pH 8.3, 500 mM KCl, 20 mM MgCl2) and 0.15 μl of a 5 U/μl thermostable DNA polymerase, and adding sterilized ultrapure water thereto to an amount of solution of 25 μl. When a DNA derived from mRNA of 3OST2 gene was amplified, PCR was performed at the conditions under which the reaction solution was retained at 94° C. for 10 minutes, 28 cycles of temperature maintenance were performed, each cycle was 30 seconds at 94° C., 30 seconds at 45° C. and 60 seconds at 72° C., and a temperature was maintained at 72° C. for 10 minutes. […]

Structure (SMILES): Nc1ncn([C@H]2C[C@H](O)[C@@H](CO)O2)c(=O)n1 [5Aza-dC, 5-aza-2′-deoxytidine]
- methylation status of cytosines 1260, 1271, 1281, 1410, 1418, 1423 and 1425 of SEQ ID NO: 1 (3OST2 gene) (3OST2 gene [1]): not methylated in genomic DNAs of approximately half of cells
- methylation status of cytosines 1260, 1271, 1281, 1410, 1418, 1423 and 1425 of SEQ ID NO: 1 (3OST2 gene) (3OST2 gene [2]): not methylated in almost genomic DNAs
- DNA (161 bp) derived from a mRNA of 3OST2 gene (expression) (3OST2 gene [3]; MAD-MB-468 cultured in the presence of 0.5 μM 5Aza-dC): detected
- DNA (161 bp) derived from a mRNA of 3OST2 gene (expression) (3OST2 gene [3]; MAD-MB-468 cultured in the presence of 1 μM 5Aza-dC): detected
